Measured values as given in PMC9301601 (Frontiers in Pharmacology, 2022).

Key:
hERG potassium channel = tested on: hERG potassium channel; set-up: method as in Szendrey et al., 2021; details: ref Szendrey et al., 2021; cited from earlier work
hERG protein = tested on: hERG protein; set-up: method as in Borsini et al., 2012; details: ref Borsini et al., 2012; cited from earlier work
[1] = tested on: sodium or calcium channels (SLC8A1, CACNA1C, SCN5A); assay: RT-qPCR of cardiac ion channel genes in hiPSC-CMs: sodium or calcium channels; assay type: cell-based, human; details: GAPDH housekeeping
Hsp70 = assay: Western blot of chaperone Hsp70 after 24 h incubation; assay type: cell-based, human; details: LPV 1-20 μM, especially at 10 μM
KCNQ1 = assay: RT-qPCR of KCNQ1 in hiPSC-CMs; assay type: cell-based, human
SARS-CoV-2 = tested on: SARS-CoV-2; set-up: method as in Lou et al., 2021; details: read-out: 50% effective inhibition concentration (EC50) against SARS-CoV-2; ref Lou et al., 2021; cited from earlier work
hiPSC-CMs = assay: Action potential recording in hiPSC-CMs, whole-cell patch-clamp (current-clamp); assay type: cell-based, human; details: for decrease of APD vs CTL / APD (APD90): 24-h incubation; for APD (APD90): CTL 364.4 ms, p < 0.0001, n = 14; for early after-depolarizations (EADs) during repolarization: transient effect, recorded within 1 hour
Hsp90 = assay: Western blot of chaperone Hsp90 after 24 h incubation; assay type: cell-based, human; details: LPV 1-20 μM
hERG = tested on: hERG; set-up: method as in Szendrey et al., 2021; details: when acting alone; ref Szendrey et al., 2021; cited from earlier work
ICaL = tested on: ICaL; set-up: method as in Chen et al., 2020; Guo et al., 2021; details: as a sigma-1 receptor agonist; ref Chen et al., 2020; Guo et al., 2021; cited from earlier work
COVID-19 = tested on: COVID-19; set-up: method as in Lenze et al., 2020; details: hospitalized patients with COVID-19, double-blind RCT; ref Lenze et al., 2020; cited from earlier work
Ito = tested on: Ito; set-up: method as in Chen et al., 2020; Guo et al., 2021; details: as a sigma-1 receptor agonist; ref Chen et al., 2020; Guo et al., 2021; cited from earlier work
[2] = LPV-treated hiPSC-CMs, Figure 6H
[3] = FLV-treated hiPSC-CMs, Figure 6H

For `CCN(CCO)CCCC(C)Nc1ccnc2cc(Cl)ccc12` (stereo not shown) [hydroxychloroquine], the “effect on the hERG current (IhERG)” value (hERG potassium channel) is given as “acutely and severely inhibited”.

In the case of `CCN(CC)CCCC(C)Nc1ccnc2cc(Cl)ccc12` (stereo not shown) [chloroquine], the “trafficking of the hERG protein” value (hERG protein) is listed as “prompted the trafficking” and the “effect on the hERG current (IhERG)” value (hERG potassium channel) is listed as “acutely and severely inhibited”.

In the case of `Cc1cccc(C)c1OCC(=O)N[C@@H](Cc1ccccc1)[C@@H](O)C[C@H](Cc1ccccc1)NC(=O)[C@H](C(C)C)N1CCCNC1=O` [LPV, lopinavir], the “mRNA expression of sodium or calcium channels” value ([1]; 10 μM LPV) is reported as “did not significantly alter”, the “expression of Hsp70” value (Hsp70) is reported as “significantly increased” and the “level of KCNQ1 nucleic acid” value (KCNQ1; chronic LPV administration) is reported as “increased”. For the same molecule, the EC50 (SARS-CoV-2) was 1.74 µM, the “decrease of APD vs CTL” value (hiPSC-CMs; 10 μM LPV) was 191.8 ms and the “APD (APD90)” value (hiPSC-CMs; 10 μM LPV) was 172.6 ms. For the same molecule, the “early after-depolarizations (EADs) during repolarization” value (hiPSC-CMs; 10 μM LPV) was “induce the occurrence of EADs”, the APD10 (hiPSC-CMs; [2]) was 48.9 ± 10.3 ms and the APD30 (hiPSC-CMs; [2]) was 103.6 ± 11.2 ms. For the same molecule, the “Amp (amplitude)” value (hiPSC-CMs; [2]) was 103.8±6.1 mV, the “MDP (maximum diastolic potential)” value (hiPSC-CMs; [2]) was -59.1±3.6 mV and the “expression levels of Hsp90” value (Hsp90) was “significant reduction”.

For `CCC(CC)COC(=O)[C@H](C)N[P@](=O)(OC[C@H]1O[C@@](C#N)(c2ccc3c(N)ncnn23)[C@H](O)[C@@H]1O)Oc1ccccc1` [remdesivir], the hERG maturation (hERG) is given as “promoted hERG maturation” and the “effect on the hERG current (IhERG)” value (hERG potassium channel) is given as “increased”.

For `COCCCC/C(=N\OCCN)c1ccc(C(F)(F)F)cc1` [FLV, fluvoxamine], the “mRNA expression of sodium or calcium channels” value ([1]; 3 μM FLV) is listed as “did not significantly alter”, the “level of KCNQ1 nucleic acid” value (KCNQ1; chronic FLV administration) is listed as “increased” and the “effect on ICaL” value (ICaL) is listed as “decreases”. The “decrease of APD vs CTL” value (hiPSC-CMs; 3 μM FLV) was 183.6 ms, the “APD (APD90)” value (hiPSC-CMs; 3 μM FLV) was 180.8 ms and the “early after-depolarizations (EADs) during repolarization” value (hiPSC-CMs; 3 μM FLV) was “induce the occurrence of EADs”. For the same molecule, the APD10 (hiPSC-CMs; [3]) was 52.3 ± 8.8 ms, the “Amp (amplitude)” value (hiPSC-CMs; [3]) was 99.2±9.7 mV and the “MDP (maximum diastolic potential)” value (hiPSC-CMs; [3]) was -51.8±8.3 mV. For the same molecule, the clinical deterioration rate (COVID-19) was “lower clinical deterioration rate” and the “effect on Ito” value (Ito) was “enhances”.
